In the supplement of paper PMC10307832:

Assays:
Experiment in all cases: relative viability (nuclei count vs DMSO), 5 days (fraction); higher = more cells survive
PAC-1 + Vorinostat = compound: C=CCc1cccc(/C=N/NC(=O)CN2CCN(Cc3ccccc3)CC2)c1O [PAC-1] + O=C(CCCCCCC(=O)Nc1ccccc1)NO [Vorinostat] (partner 1 µM)
Outline: (§1)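 Lung cancer cell lines in 1536-well plates were dosed by pin tool the day after seeding, either with one drug alone or with a fixed anchor-drug dose plus five library-drug doses (not always all listed) in √10 steps. After 5 days, cells were fixed and their nuclei stained in one step (final 0.05% Triton X-100, 1% formaldehyde, 1 ug/ml Hoechst), then counted on 4× images. Relative viability is the nuclei count in treated wells divided by that in vehicle wells. Values are medians of duplicate plates.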

BMX-IN-1 + Vorinostat = compound: C=CC(=O)Nc1cc(-n2c(=O)ccc3cnc4ccc(-c5ccc(NS(C)(=O)=O)cc5)cc4c32)ccc1C [BMX-IN-1] + O=C(CCCCCCC(=O)Nc1ccccc1)NO [Vorinostat] (partner 1 µM)
Outline: as §1

BMX-IN-1 + Navitoclax = compound: C=CC(=O)Nc1cc(-n2c(=O)ccc3cnc4ccc(-c5ccc(NS(C)(=O)=O)cc5)cc4c32)ccc1C [BMX-IN-1] + CC1(C)CCC(c2ccc(Cl)cc2)=C(CN2CCN(c3ccc(C(=O)NS(=O)(=O)c4ccc(N[C@H](CCN5CCOCC5)CSc5ccccc5)c(S(=O)(=O)C(F)(F)F)c4)cc3)CC2)C1 [Navitoclax] (partner 0.5 µM)
Outline: as §1

PAC-1 + AZD7762 = compound: C=CCc1cccc(/C=N/NC(=O)CN2CCN(Cc3ccccc3)CC2)c1O [PAC-1] + NC(=O)Nc1cc(-c2cccc(F)c2)sc1C(=O)N[C@H]1CCCNC1 [AZD7762] (partner 0.2 µM)
Outline: as §1

BMX-IN-1 + Palbociclib = compound: C=CC(=O)Nc1cc(-n2c(=O)ccc3cnc4ccc(-c5ccc(NS(C)(=O)=O)cc5)cc4c32)ccc1C [BMX-IN-1] + CC(=O)c1c(C)c2cnc(Nc3ccc(N4CCNCC4)cn3)nc2n(C2CCCC2)c1=O [Palbociclib] (partner 0.5 µM)
Outline: as §1

Row | Cell Line | relative viability (PAC-1 + Vorinostat; first compound 0.02 µM) | relative viability (PAC-1 + Vorinostat; first compound 0.06325 µM) | relative viability (PAC-1 + Vorinostat; first compound 0.2 µM) | relative viability (PAC-1 + Vorinostat; first compound 2 µM) | relative viability (BMX-IN-1 + Vorinostat; first compound 0.02 µM) | relative viability (BMX-IN-1 + Vorinostat; first compound 0.2 µM) | relative viability (BMX-IN-1 + Vorinostat; first compound 0.6325 µM) | relative viability (BMX-IN-1 + Vorinostat; first compound 2 µM) | relative viability (BMX-IN-1 + Navitoclax; first compound 0.02 µM) | relative viability (BMX-IN-1 + Navitoclax; first compound 0.2 µM) | relative viability (BMX-IN-1 + Navitoclax; first compound 0.6325 µM) | relative viability (BMX-IN-1 + Navitoclax; first compound 2 µM) | relative viability (PAC-1 + AZD7762; first compound 0.02 µM) | relative viability (PAC-1 + AZD7762; first compound 0.06325 µM) | relative viability (PAC-1 + AZD7762; first compound 0.2 µM) | relative viability (PAC-1 + AZD7762; first compound 2 µM) | relative viability (BMX-IN-1 + Palbociclib; first compound 0.02 µM) | relative viability (BMX-IN-1 + Palbociclib; first compound 0.2 µM) | relative viability (BMX-IN-1 + Palbociclib; first compound 0.6325 µM) | relative viability (BMX-IN-1 + Palbociclib; first compound 2 µM)
1 | NCI-H596 | 0.619 | 0.603 | 0.643 | 0.741 | 0.685 | 0.84 | 0.67 | 0.666 | 0.906 | 1.08 | 1.07 | 0.816 | 1.11 | 1.2 | 1.09 | 1.13 |  |  |  | 
2 | LU99A | 0.502 | 0.448 | 0.429 | 0.502 | 0.501 | 0.421 | 0.669 | 0.612 | 0.897 | 0.885 | 0.857 | 0.833 | 0.465 | 0.392 | 0.264 | 0.179 | 0.45 | 0.428 | 0.421 | 0.411
3 | NCI-H460 | 0.755 | 0.75 | 0.642 | 0.707 | 1.05 |  | 1.11 | 0.782 |  |  | 1.32 | 1.25 | 0.548 | 0.674 | 0.602 | 0.656 | 0.131 | 0.195 | 0.213 | 0.149
4 | NCI-H1648 | 0.49 | 0.42 | 0.431 | 0.463 | 0.522 | 1 | 0.3 | 0.503 |  |  |  |  | 0.604 | 0.898 | 0.73 | 0.66 | 0.251 | 0.256 | 0.286 | 0.31
